Measurements taken from PubChem BioAssay AID2060503 (Molecular Pharmacology Branch, DTP, NCI, 2025).

system: 817829-284-R-J1-PDC complex spheroids, viability; experiment: Anticancer human tumor 817829-284-R-J1-PDC patient-derived colon adenocarcinoma cell line growth inhibition [GQUAD]; conditions: second compound 1 µM; first compound 0.1 µM; stronger effect = lower value
Method in brief: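 Viability of tumor cells grown as complex spheroids with endothelial and stromal cells, exposed to drug combinations. Top concentration at or near clinical Cmax (else 10 microM), diluted in half-log increments.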
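Note: spheroids exposed to agents for 7 days before readout; percent viability relative to DMSO vehicle control taken as 100%.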

Q: With O=C(NO)c1cnc(N2CCN(S(=O)(=O)c3ccc4ccccc4c3)CC2)nc1 + CN(C)c1ccc(Nc2c3ccc(NC(=O)CCN4CCCC4)cc3nc3cc(NC(=O)CCN4CCCC4)ccc23)cc1 as the molecule, how does the viability, T/C read?
A: 99.4%

Q: How did the viability, T/C turn out when CC1COCCN1c1cc(C2(O)CC3CCC(C2)O3)c2cnn(-c3ccn[nH]3)c2n1 (configuration not stated) + Cc1[nH]c2ccc(F)cc2c1-c1nc2c3cccnc3c3ncccc3c2[nH]1 was run?
A: 11.7%

same assay, conditions: second compound 1 µM; first compound 0.316 µM; stronger effect = lower value

Q: How did the viability, T/C turn out when C=CCn1c(=O)c2cnc(Nc3ccc(N4CCN(C)CC4)cc3)nc2n1-c1cccc(C(C)(C)O)n1 + CN(C)c1ccc(Nc2c3ccc(NC(=O)CCN4CCCC4)cc3nc3cc(NC(=O)CCN4CCCC4)ccc23)cc1 was run?
A: 30.9%

Q: For CCCS(=O)(=O)Nc1ccc(F)c(C(=O)c2c[nH]c3ncc(-c4ccc(Cl)cc4)cc23)c1F + CN(C)c1ccc(Nc2c3ccc(NC(=O)CCN4CCCC4)cc3nc3cc(NC(=O)CCN4CCCC4)ccc23)cc1, which viability, T/C is on record?
A: 104%

Q: Which viability, T/C does the source give for COc1ncnc(C2CC2)c1-c1ncc2cnn(Cc3ccc(-c4nc(C(F)(F)F)cn4C(C)C)cc3)c2n1 + CN(C)c1ccc(Nc2c3ccc(NC(=O)CCN4CCCC4)cc3nc3cc(NC(=O)CCN4CCCC4)ccc23)cc1 here?
A: 115%

Q: For Cc1[nH]c2ccccc2c1CCNCc1ccc(/C=C/C(=O)NO)cc1 + CN(C)c1ccc(Nc2c3ccc(NC(=O)CCN4CCCC4)cc3nc3cc(NC(=O)CCN4CCCC4)ccc23)cc1, which viability, T/C is on record?
A: 0.14%

Q: O=C(NO)c1cnc(N2CCN(S(=O)(=O)c3ccc4ccccc4c3)CC2)nc1 + CN(C)c1ccc(Nc2c3ccc(NC(=O)CCN4CCCC4)cc3nc3cc(NC(=O)CCN4CCCC4)ccc23)cc1 was tested. Which viability, T/C did it give?
A: 4.41%

Q: How did the viability, T/C turn out when CC1COCCN1c1cc(C2(O)CC3CCC(C2)O3)c2cnn(-c3ccn[nH]3)c2n1 (configuration not stated) + Cc1[nH]c2ccc(F)cc2c1-c1nc2c3cccnc3c3ncccc3c2[nH]1 was run?
A: 7.32%

same assay, conditions: second compound 1 µM; first compound 1 µM; stronger effect = lower value

Q: For C=CCn1c(=O)c2cnc(Nc3ccc(N4CCN(C)CC4)cc3)nc2n1-c1cccc(C(C)(C)O)n1 + CN(C)c1ccc(Nc2c3ccc(NC(=O)CCN4CCCC4)cc3nc3cc(NC(=O)CCN4CCCC4)ccc23)cc1, which viability, T/C is on record?
A: 9.37%

Q: How did the viability, T/C turn out when CCCS(=O)(=O)Nc1ccc(F)c(C(=O)c2c[nH]c3ncc(-c4ccc(Cl)cc4)cc23)c1F + CN(C)c1ccc(Nc2c3ccc(NC(=O)CCN4CCCC4)cc3nc3cc(NC(=O)CCN4CCCC4)ccc23)cc1 was run?
A: 98%

Q: How did the viability, T/C turn out when COc1ncnc(C2CC2)c1-c1ncc2cnn(Cc3ccc(-c4nc(C(F)(F)F)cn4C(C)C)cc3)c2n1 + CN(C)c1ccc(Nc2c3ccc(NC(=O)CCN4CCCC4)cc3nc3cc(NC(=O)CCN4CCCC4)ccc23)cc1 was run?
A: 104%

Q: O=C(NO)c1cnc(N2CCN(S(=O)(=O)c3ccc4ccccc4c3)CC2)nc1 + CN(C)c1ccc(Nc2c3ccc(NC(=O)CCN4CCCC4)cc3nc3cc(NC(=O)CCN4CCCC4)ccc23)cc1 was tested. Which viability, T/C did it give?
A: 0.21%

Q: For CC1COCCN1c1cc(C2(O)CC3CCC(C2)O3)c2cnn(-c3ccn[nH]3)c2n1 (configuration not stated) + Cc1[nH]c2ccc(F)cc2c1-c1nc2c3cccnc3c3ncccc3c2[nH]1, which viability, T/C is on record?
A: 6.4%

same assay, conditions: second compound 1 µM; first compound 3.16 µM; stronger effect = lower value

Q: With C=CCn1c(=O)c2cnc(Nc3ccc(N4CCN(C)CC4)cc3)nc2n1-c1cccc(C(C)(C)O)n1 + CN(C)c1ccc(Nc2c3ccc(NC(=O)CCN4CCCC4)cc3nc3cc(NC(=O)CCN4CCCC4)ccc23)cc1 as the molecule, how does the viability, T/C read?
A: 6.93%

Q: CCCS(=O)(=O)Nc1ccc(F)c(C(=O)c2c[nH]c3ncc(-c4ccc(Cl)cc4)cc23)c1F + CN(C)c1ccc(Nc2c3ccc(NC(=O)CCN4CCCC4)cc3nc3cc(NC(=O)CCN4CCCC4)ccc23)cc1 was tested. Which viability, T/C did it give?
A: 79.8%

Q: For COc1ncnc(C2CC2)c1-c1ncc2cnn(Cc3ccc(-c4nc(C(F)(F)F)cn4C(C)C)cc3)c2n1 + CN(C)c1ccc(Nc2c3ccc(NC(=O)CCN4CCCC4)cc3nc3cc(NC(=O)CCN4CCCC4)ccc23)cc1, which viability, T/C is on record?
A: 104%

Q: Which viability, T/C does the source give for O=C(NO)c1cnc(N2CCN(S(=O)(=O)c3ccc4ccccc4c3)CC2)nc1 + CN(C)c1ccc(Nc2c3ccc(NC(=O)CCN4CCCC4)cc3nc3cc(NC(=O)CCN4CCCC4)ccc23)cc1 here?
A: 0.1%

Q: CC1COCCN1c1cc(C2(O)CC3CCC(C2)O3)c2cnn(-c3ccn[nH]3)c2n1 (configuration not stated) + Cc1[nH]c2ccc(F)cc2c1-c1nc2c3cccnc3c3ncccc3c2[nH]1 was tested. Which viability, T/C did it give?
A: 4.91%

same assay, conditions: second compound 1 µM; first compound 10 µM; stronger effect = lower value

Q: Which viability, T/C does the source give for C=CCn1c(=O)c2cnc(Nc3ccc(N4CCN(C)CC4)cc3)nc2n1-c1cccc(C(C)(C)O)n1 + CN(C)c1ccc(Nc2c3ccc(NC(=O)CCN4CCCC4)cc3nc3cc(NC(=O)CCN4CCCC4)ccc23)cc1 here?
A: 6.42%

Q: For CCCS(=O)(=O)Nc1ccc(F)c(C(=O)c2c[nH]c3ncc(-c4ccc(Cl)cc4)cc23)c1F + CN(C)c1ccc(Nc2c3ccc(NC(=O)CCN4CCCC4)cc3nc3cc(NC(=O)CCN4CCCC4)ccc23)cc1, which viability, T/C is on record?
A: 22.2%

Q: COc1ncnc(C2CC2)c1-c1ncc2cnn(Cc3ccc(-c4nc(C(F)(F)F)cn4C(C)C)cc3)c2n1 + CN(C)c1ccc(Nc2c3ccc(NC(=O)CCN4CCCC4)cc3nc3cc(NC(=O)CCN4CCCC4)ccc23)cc1 was tested. Which viability, T/C did it give?
A: 114%

Q: For O=C(NO)c1cnc(N2CCN(S(=O)(=O)c3ccc4ccccc4c3)CC2)nc1 + CN(C)c1ccc(Nc2c3ccc(NC(=O)CCN4CCCC4)cc3nc3cc(NC(=O)CCN4CCCC4)ccc23)cc1, which viability, T/C is on record?
A: 0.13%

Q: How did the viability, T/C turn out when CC1COCCN1c1cc(C2(O)CC3CCC(C2)O3)c2cnn(-c3ccn[nH]3)c2n1 (configuration not stated) + Cc1[nH]c2ccc(F)cc2c1-c1nc2c3cccnc3c3ncccc3c2[nH]1 was run?
A: 3.49%

same assay, conditions: second compound 3.16 µM; first compound 0.000999 µM; stronger effect = lower value

Q: How did the viability, T/C turn out when Cc1[nH]c2ccccc2c1CCNCc1ccc(/C=C/C(=O)NO)cc1 + CN(C)c1ccc(Nc2c3ccc(NC(=O)CCN4CCCC4)cc3nc3cc(NC(=O)CCN4CCCC4)ccc23)cc1 was run?
A: 96.1%

same assay, conditions: second compound 3.16 µM; first compound 0.00316 µM; stronger effect = lower value

Q: With Cc1[nH]c2ccccc2c1CCNCc1ccc(/C=C/C(=O)NO)cc1 + CN(C)c1ccc(Nc2c3ccc(NC(=O)CCN4CCCC4)cc3nc3cc(NC(=O)CCN4CCCC4)ccc23)cc1 as the molecule, how does the viability, T/C read?
A: 99.2%

same assay, conditions: second compound 3.16 µM; first compound 0.00999 µM; stronger effect = lower value

Q: For Cc1[nH]c2ccccc2c1CCNCc1ccc(/C=C/C(=O)NO)cc1 + CN(C)c1ccc(Nc2c3ccc(NC(=O)CCN4CCCC4)cc3nc3cc(NC(=O)CCN4CCCC4)ccc23)cc1, which viability, T/C is on record?
A: 119%

same assay, conditions: second compound 3.16 µM; first compound 0.0316 µM; stronger effect = lower value

Q: How did the viability, T/C turn out when C=CCn1c(=O)c2cnc(Nc3ccc(N4CCN(C)CC4)cc3)nc2n1-c1cccc(C(C)(C)O)n1 + CN(C)c1ccc(Nc2c3ccc(NC(=O)CCN4CCCC4)cc3nc3cc(NC(=O)CCN4CCCC4)ccc23)cc1 was run?
A: 89.3%

Q: For CCCS(=O)(=O)Nc1ccc(F)c(C(=O)c2c[nH]c3ncc(-c4ccc(Cl)cc4)cc23)c1F + CN(C)c1ccc(Nc2c3ccc(NC(=O)CCN4CCCC4)cc3nc3cc(NC(=O)CCN4CCCC4)ccc23)cc1, which viability, T/C is on record?
A: 106%

Q: For COc1ncnc(C2CC2)c1-c1ncc2cnn(Cc3ccc(-c4nc(C(F)(F)F)cn4C(C)C)cc3)c2n1 + CN(C)c1ccc(Nc2c3ccc(NC(=O)CCN4CCCC4)cc3nc3cc(NC(=O)CCN4CCCC4)ccc23)cc1, which viability, T/C is on record?
A: 106%

Q: Which viability, T/C does the source give for Cc1[nH]c2ccccc2c1CCNCc1ccc(/C=C/C(=O)NO)cc1 + CN(C)c1ccc(Nc2c3ccc(NC(=O)CCN4CCCC4)cc3nc3cc(NC(=O)CCN4CCCC4)ccc23)cc1 here?
A: 76.1%

Q: For O=C(NO)c1cnc(N2CCN(S(=O)(=O)c3ccc4ccccc4c3)CC2)nc1 + CN(C)c1ccc(Nc2c3ccc(NC(=O)CCN4CCCC4)cc3nc3cc(NC(=O)CCN4CCCC4)ccc23)cc1, which viability, T/C is on record?
A: 110%

Q: Which viability, T/C does the source give for CC1COCCN1c1cc(C2(O)CC3CCC(C2)O3)c2cnn(-c3ccn[nH]3)c2n1 (configuration not stated) + Cc1[nH]c2ccc(F)cc2c1-c1nc2c3cccnc3c3ncccc3c2[nH]1 here?
A: 19.1%
